Experimental data reported in ChEMBL document CHEMBL1201861, “Genomics of Drug Sensitity in Cancer screening data, Wellcome Trust Sanger Institute”.
pIC50: −log10 of the molar value. Where a name gives a salt, the structure may show the parent alone.

Key:
CP67-MEL = assay: SANGER: Inhibition of human CP67-MEL cell growth in a cell viability assay.; assay type: functional, cell-based
KP-N-RT-BM-1 = assay: SANGER: Inhibition of human KP-N-RT-BM-1 cell growth in a cell viability assay.; assay type: functional, cell-based
NCI-H128 = assay: SANGER: Inhibition of human NCI-H128 cell growth in a cell viability assay.; assay type: functional, cell-based
NCI-H2107 = assay: SANGER: Inhibition of human NCI-H2107 cell growth in a cell viability assay.; assay type: functional, cell-based
SKM-1 = assay: SANGER: Inhibition of human SKM-1 cell growth in a cell viability assay.; assay type: functional, cell-based
NBsusSR = assay: cells; assay type: functional, cell-based, Homo sapiens;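 further: growth inhibition of the human cell line, read out with a cell viability assay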
Description: SANGER: Inhibition of human NBsusSR cell growth in a cell viability assay.

SW900 = assay: cells; assay type: functional, cell-based, Homo sapiens;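 further: IC50 is the concentration that inhibits SW900 cell growth, measured by a cell viability assay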
Description: SANGER: Inhibition of human SW900 cell growth in a cell viability assay.

BALL-1 = assay: cells; assay type: functional, cell-based, Homo sapiens;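 further: growth inhibition of BALL-1 cells, read out with a cell viability assay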
Description: SANGER: Inhibition of human BALL-1 cell growth in a cell viability assay.

ECC10 = assay: cells; assay type: functional, cell-based, Homo sapiens;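 further: growth inhibition of ECC10 cells, read out by a cell viability assay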
Description: SANGER: Inhibition of human ECC10 cell growth in a cell viability assay.

Caov-3 cell line = assay: cells; assay type: functional, cell-based, Homo sapiens; details: Homo sapiens, Caov-3;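 further: cell growth inhibition read out by a viability assay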
Description: SANGER: Inhibition of human Caov-3 cell growth in a cell viability assay.

DMS-53 = assay: cells; assay type: functional, cell-based, Homo sapiens; details: Homo sapiens, DMS-53;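 further: cell viability assay measuring growth inhibition of human DMS-53 cells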
Description: SANGER: Inhibition of human DMS-53 cell growth in a cell viability assay.

EW-7 = assay: SANGER: Inhibition of human EW-7 cell growth in a cell viability assay.; assay type: functional, cell-based; details: Homo sapiens, EW-7
HCC1143 = assay: cells; assay type: functional, cell-based, Homo sapiens; details: Homo sapiens, HCC1143;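 further: growth inhibition of human HCC1143 cells, read out with a cell viability assay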
Description: SANGER: Inhibition of human HCC1143 cell growth in a cell viability assay.

MDA-MB-468 = assay: cells; assay type: functional, cell-based, Homo sapiens; details: Homo sapiens, MDA-MB-468
Description: SANGER: Inhibition of human MDA-MB-468 cell growth in a cell viability assay.

MES-SA = assay: cells; assay type: functional, cell-based, Homo sapiens; details: Homo sapiens, MES-SA;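 further: growth inhibition of human MES-SA cells, read out with a cell viability assay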
Description: SANGER: Inhibition of human MES-SA cell growth in a cell viability assay.

MFE-296 = assay: SANGER: Inhibition of human MFE-296 cell growth in a cell viability assay.; assay type: functional, cell-based; details: Homo sapiens, MFE-296
NCI-H838 = assay: cells; assay type: functional, cell-based, Homo sapiens; details: Homo sapiens, NCI-H838;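 further: growth inhibition of human NCI-H838 cells, read out by a cell viability assay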
Description: SANGER: Inhibition of human NCI-H838 cell growth in a cell viability assay.

RT-4 = assay: SANGER: Inhibition of human RT4 cell growth in a cell viability assay.; assay type: functional, cell-based; details: Homo sapiens, RT-4
SK-CO-1 = assay: cells; assay type: functional, cell-based, Homo sapiens; details: Homo sapiens, SK-CO-1;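 further: growth inhibition of SK-CO-1 cells, determined by a viability readout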
Description: SANGER: Inhibition of human SK-CO-1 cell growth in a cell viability assay.

SNU-475 = assay: cells; assay type: functional, cell-based, Homo sapiens; details: Homo sapiens, SNU-475
Description: SANGER: Inhibition of human SNU-475 cell growth in a cell viability assay.

C-4-II = assay: SANGER: Inhibition of human C-4-II cell growth in a cell viability assay.; assay type: functional, cell-based; details: Homo sapiens, C-4-II
TT = assay: cells; assay type: functional, cell-based, Homo sapiens; details: Homo sapiens, TT
Description: SANGER: Inhibition of human TT cell growth in a cell viability assay.

COLO 205 = assay: cells; assay type: functional, cell-based, Homo sapiens; details: Homo sapiens, COLO 205
Description: SANGER: Inhibition of human COLO-205 cell growth in a cell viability assay.

CHP-134 = assay: SANGER: Inhibition of human CHP-134 cell growth in a cell viability assay.; assay type: functional, cell-based
ECC12 = assay: cells; assay type: functional, cell-based; details: Homo sapiens
Description: SANGER: Inhibition of human ECC12 cell growth in a cell viability assay.

Compound: COc1cc2ncn(-c3cc(OCc4ccccc4C(F)(F)F)c(C(N)=O)s3)c2cc1OC [GW843682X]
- pIC50 (CP67-MEL): 6.93
- pIC50 (KP-N-RT-BM-1): 6.88
- pIC50 (NCI-H128): < 6.59
- pIC50 (NCI-H2107): < 6.59
- pIC50 (SKM-1): < 6.59

Compound: CS(=O)(=O)c1ccc(C(=O)Nc2ccc(Cl)c(-c3ccccn3)c2)c(Cl)c1 [VISMODEGIB]
- pIC50 (NBsusSR; Homo sapiens, NBsusSR): < 5.00
- pIC50 (SW900; Homo sapiens, SW900): < 5.00
- pIC50 (BALL-1; Homo sapiens, BALL-1): < 5.00

Compound: CISPLATIN
- pIC50 (ECC10; ecc10): 3.59
- pIC50 (NBsusSR; nbsussr): 5.88
- pIC50 (SW900; sw900): 4.54
- pIC50 (BALL-1; ball-1): 4.12

Compound: CCC/C=C/C=C/C(=O)O[C@H]1/C(=C/C(=O)OC)C[C@H]2C[C@H]([C@@H](C)O)OC(=O)C[C@H](O)C[C@@H]3C[C@H](OC(C)=O)C(C)(C)[C@](O)(C[C@@H]4C/C(=C/C(=O)OC)C[C@H](/C=C/C(C)(C)[C@]1(O)O2)O4)O3 [BRYOSTATIN 1]
- pIC50 (Caov-3 cell line): < 8.10
- pIC50 (DMS-53): < 8.10
- pIC50 (EW-7): < 8.10
- pIC50 (HCC1143): < 8.10
- pIC50 (MDA-MB-468): < 8.10
- pIC50 (MES-SA): < 8.10
- pIC50 (MFE-296): < 8.10
- pIC50 (NCI-H838): < 8.10
- pIC50 (RT-4): < 8.10
- pIC50 (SK-CO-1): < 8.10
- pIC50 (SNU-475): < 8.10
- pIC50 (C-4-II): < 8.10
- pIC50 (TT): < 8.10
- pIC50 (COLO 205): < 8.10

Compound: COC1=CC(c2cc3ccccc3[nH]2)=N/C1=C\c1[nH]c(C)cc1C [OBATOCLAX MESYLATE]
- pIC50 (Caov-3 cell line): 5.77
- pIC50 (DMS-53): 6.32
- pIC50 (EW-7): > 7.20
- pIC50 (HCC1143): 6.76
- pIC50 (MDA-MB-468): 6.04
- pIC50 (MES-SA): 6.39
- pIC50 (MFE-296): 6.86
- pIC50 (NCI-H838): 6.28
- pIC50 (RT-4): 5.80
- pIC50 (SK-CO-1): 5.58
- pIC50 (SNU-475): < 4.80
- pIC50 (C-4-II): 5.43
- pIC50 (TT): < 4.80
- pIC50 (COLO 205): 7.24

Compound: Cc1ccc(-c2c(C(=O)CCl)n(CCCO)c3ncnc(N)c23)cc1
- pIC50 (CP67-MEL): < 5.40
- pIC50 (KP-N-RT-BM-1): 5.60
- pIC50 (NCI-H128): 5.51
- pIC50 (NCI-H2107): < 5.40
- pIC50 (SKM-1): < 5.40

Compound: COc1cc2c(Nc3ccc(NC(=O)c4ccccc4)cc3)ncnc2cc1OCCCN1CCOCC1
- pIC50 (ECC10; Homo sapiens, ECC10): 5.79
- pIC50 (NBsusSR; Homo sapiens, NBsusSR): 6.04
- pIC50 (SW900; Homo sapiens, SW900): < 5.40
- pIC50 (BALL-1; Homo sapiens, BALL-1): < 5.40
- pIC50 (CHP-134): 5.91

Compound: CO[C@H]1C[C@@H]2CC[C@@H](C)[C@@](O)(O2)C(=O)C(=O)N2CCCC[C@H]2C(=O)O[C@H]([C@H](C)C[C@@H]2CC[C@@H](OC(=O)C(C)(CO)CO)[C@H](OC)C2)CC(=O)[C@H](C)/C=C(\C)[C@@H](O)[C@@H](OC)C(=O)[C@H](C)C[C@H](C)/C=C/C=C/C=C/1C [TEMSIROLIMUS]
- pIC50 (ECC10; Homo sapiens, ECC10): < 6.70
- pIC50 (NBsusSR; Homo sapiens, NBsusSR): 7.67
- pIC50 (SW900; Homo sapiens, SW900): < 6.70
- pIC50 (BALL-1; Homo sapiens, BALL-1): < 6.70

Compound: C#Cc1cccc(Nc2ncnc3cc(OCCOC)c(OCCOC)cc23)c1 [ERLOTINIB]
- pIC50 (ECC12): 7.09
- pIC50 (NCI-H128): < 5.70
- pIC50 (NCI-H2107): < 5.70
- pIC50 (SKM-1): < 5.70

Compound: CC1(C)CNc2cc(NC(=O)c3cccnc3NCc3ccncc3)ccc21 [MOTESANIB]
- pIC50 (ECC10; Homo sapiens, ECC10): < 5.70
- pIC50 (NBsusSR; Homo sapiens, NBsusSR): < 5.70
- pIC50 (SW900; Homo sapiens, SW900): < 5.70
- pIC50 (BALL-1; Homo sapiens, BALL-1): < 5.70
- pIC50 (CHP-134): < 5.70

Compound: Cn1cnc2c(F)c(Nc3ccc(Br)cc3Cl)c(C(=O)NOCCO)cc21 [SELUMETINIB]
- pIC50 (ECC10; Homo sapiens, ECC10): < 5.40
- pIC50 (NBsusSR; Homo sapiens, NBsusSR): < 5.40
- pIC50 (BALL-1; Homo sapiens, BALL-1): < 5.40
- pIC50 (CHP-134): < 5.40

Compound: COc1cc(-c2nn([C@H]3CC[C@H](N4CCN(C(C)=O)CC4)CC3)c3ncnc(N)c23)ccc1NC(=O)c1cc2ccccc2n1C
- pIC50 (CP67-MEL): < 5.29
- pIC50 (KP-N-RT-BM-1): < 5.29
- pIC50 (NCI-H128): < 5.29
- pIC50 (NCI-H2107): < 5.29
- pIC50 (SKM-1): < 5.29

Compound: OCCCNc1cc(-c2ccnc(Nc3cccc(Cl)c3)n2)ccn1
- pIC50 (CP67-MEL): 7.28
- pIC50 (KP-N-RT-BM-1): 6.83
- pIC50 (NCI-H128): < 6.59
- pIC50 (NCI-H2107): 6.87
- pIC50 (SKM-1): < 6.59

Compound: COc1cc(N2CCN(C)CC2)ccc1Nc1ncc2c(n1)N(C)c1ccccc1C(=O)N2C
- pIC50 (ECC12): < 5.10
- pIC50 (NCI-H128): < 5.10
- pIC50 (NCI-H2107): < 5.10
- pIC50 (SKM-1): < 5.10
